Test results as given in ChEMBL document CHEMBL5512623, “Discovery of the novel and potent histamine H1 receptor antagonists for treatment of allergic diseases” (Eur J Med Chem, 2024).

Experiments:
[1] = target: Voltage-gated inwardly rectifying potassium channel KCNH2 (Homo sapiens, UniProt Q12809); assay: Inhibition of hERG in HEK293 cells measured after 5 mins by patch-clamp assay
[2] = target: Muscarinic acetylcholine receptor M3 (Homo sapiens, UniProt P20309); assay: Antagonist activity at human muscarinic M3 receptor expressed in PathHunter U2OS CHRM3 beta-arrestin cells preincubated for 30 mins followed by agonist addition at 6 times EC80 and measured after 90 to 180 mins by PathHunter assay; type: functional, cell-based
Chain of Muscarinic acetylcholine receptor M3 (P20309 whole entry): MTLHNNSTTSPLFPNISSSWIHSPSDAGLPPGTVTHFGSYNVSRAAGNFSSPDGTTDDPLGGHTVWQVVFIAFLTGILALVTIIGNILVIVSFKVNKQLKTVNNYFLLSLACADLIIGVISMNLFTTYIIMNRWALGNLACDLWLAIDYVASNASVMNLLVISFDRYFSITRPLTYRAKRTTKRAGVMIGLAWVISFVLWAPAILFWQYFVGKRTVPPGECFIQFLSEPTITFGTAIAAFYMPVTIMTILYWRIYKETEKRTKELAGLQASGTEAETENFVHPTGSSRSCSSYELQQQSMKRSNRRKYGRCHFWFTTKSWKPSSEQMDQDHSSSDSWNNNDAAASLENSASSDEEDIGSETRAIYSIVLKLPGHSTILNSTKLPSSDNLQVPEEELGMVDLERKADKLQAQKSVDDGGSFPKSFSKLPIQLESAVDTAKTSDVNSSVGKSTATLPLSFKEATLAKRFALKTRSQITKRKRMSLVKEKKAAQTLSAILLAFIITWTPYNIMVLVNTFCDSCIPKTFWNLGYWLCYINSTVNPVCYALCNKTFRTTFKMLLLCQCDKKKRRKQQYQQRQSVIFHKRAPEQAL

[3] = Apparent permeability across basolateral to apical side in human Caco-2 cells at 5 uM measured at 60 mins; type: ADME, cell-based
[4] = Apparent permeability across apical to basolateral side in human Caco-2 cells at 5 uM measured at 60 mins; type: ADME, cell-based
[5] = Efflux ratio of apparent permeability across basolateral to apical over apical to basolateral side in human Caco-2 cells at 5 uM measured at 60 mins; type: ADME, cell-based
[6] = Cmax in male Sprague-Dawley rat brain at 10 mg/kg, IG administered as single dose; type: ADME, organism-based; settings: po
[7] = Cmax in female Sprague-Dawley rat brain at 10 mg/kg, IG administered as single dose; type: ADME, organism-based; settings: po
[8] = Cmax in female Sprague-Dawley rat plasma at 10 mg/kg, IG administered as single dose; type: ADME, organism-based; settings: po
[9] = Cmax in male Sprague-Dawley rat plasma at 10 mg/kg, IG administered as single dose; type: ADME, organism-based; settings: po

Chain of Voltage-gated inwardly rectifying potassium channel KCNH2 (Q12809 whole entry): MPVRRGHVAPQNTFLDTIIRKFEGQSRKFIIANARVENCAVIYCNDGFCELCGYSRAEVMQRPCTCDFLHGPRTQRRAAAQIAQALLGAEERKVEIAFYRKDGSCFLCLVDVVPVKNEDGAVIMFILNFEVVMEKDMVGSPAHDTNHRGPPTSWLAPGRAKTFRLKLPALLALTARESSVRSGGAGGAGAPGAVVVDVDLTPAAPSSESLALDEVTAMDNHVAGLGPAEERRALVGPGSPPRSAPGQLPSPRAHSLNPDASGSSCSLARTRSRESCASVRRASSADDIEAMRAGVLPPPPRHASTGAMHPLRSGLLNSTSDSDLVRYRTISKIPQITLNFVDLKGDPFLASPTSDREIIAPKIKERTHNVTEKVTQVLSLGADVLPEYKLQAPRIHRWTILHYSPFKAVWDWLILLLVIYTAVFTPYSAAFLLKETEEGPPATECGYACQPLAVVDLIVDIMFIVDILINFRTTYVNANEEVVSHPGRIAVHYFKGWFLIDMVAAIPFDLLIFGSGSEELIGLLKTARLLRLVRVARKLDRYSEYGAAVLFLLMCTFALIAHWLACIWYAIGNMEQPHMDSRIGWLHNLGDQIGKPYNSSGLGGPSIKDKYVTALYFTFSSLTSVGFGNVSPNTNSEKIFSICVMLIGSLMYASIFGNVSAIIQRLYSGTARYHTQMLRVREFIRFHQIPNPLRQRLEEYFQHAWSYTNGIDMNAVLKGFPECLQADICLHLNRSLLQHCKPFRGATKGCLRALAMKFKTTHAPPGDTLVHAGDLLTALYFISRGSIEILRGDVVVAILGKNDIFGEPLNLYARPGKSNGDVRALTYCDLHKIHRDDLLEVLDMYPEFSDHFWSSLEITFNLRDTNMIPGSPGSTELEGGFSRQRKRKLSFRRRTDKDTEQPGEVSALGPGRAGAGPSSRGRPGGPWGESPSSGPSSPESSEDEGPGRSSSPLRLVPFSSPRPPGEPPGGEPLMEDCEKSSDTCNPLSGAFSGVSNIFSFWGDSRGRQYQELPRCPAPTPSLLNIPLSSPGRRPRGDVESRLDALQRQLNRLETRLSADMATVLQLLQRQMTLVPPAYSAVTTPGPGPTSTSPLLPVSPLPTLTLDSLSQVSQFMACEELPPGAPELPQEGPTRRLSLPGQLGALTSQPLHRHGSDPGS

SMILES	IC50 [1] [µM]	IC50 [2] [µM]	also measured
CC(C)(C(=O)O)c1ccc(CCCN2CCC(=C3c4ccc(Cl)cc4CCc4cccnc43)CC2)cc1	> 30	> 10	–
NC(=O)c1cn(CCN2CCC(=C3c4ccc(Cl)cc4CCc4cccnc43)CC2)nn1	6.36	> 10	–
CC(C)(C(=O)O)c1ccc(CN2CCC(=C3c4ccc(Cl)cc4CCc4cccnc43)CC2)cc1	18.4	> 10	–
CC(C)NCC(O)COc1cccc2ccccc12 (configuration not stated) [PROPRANOLOL]	–	–	Papp B→A at 1 h, 5 µM [3]: 20.5 ×10⁻⁶ cm/s; Papp A→B at 1 h, 5 µM [4]: 34.8 ×10⁻⁶ cm/s; efflux ratio at 1 h, 5 µM [5]: 0.59
CC(C)(C(=O)O)c1ccc(CCCN2CCC(=C3c4ccc(Cl)cc4CCc4cccnc43)CC2)nc1	–	> 10	–
O=C(CCO)N1CCC(=C2c3ccc(Cl)cc3CCc3cccnc32)CC1	–	> 10	–
CC(C)(C(=O)O)c1ccc(CCCN2CCC(=C3c4ccc(Cl)cc4CCc4cccnc43)CC2)c(F)c1	30.1	> 10	–
Clc1ccc2c(c1)CCc1cccnc1C2=C1CCNCC1 [DESLORATADINE]	–	–	Cmax [6]: 843 ng/g; Cmax [7]: 1180 ng/g; Cmax [8]: 549 ng/g; Cmax [9]: 112 ng/g
